Key:
Format in all cases: cell-based
Parameters in all cases: unit not given here
[1] = system: Haemophilus influenzae Holt; assay: MIC, standard agar-dilution assay (Table II); details: ampicillin-sensitive strain
Method: (§1) The MIC's in Table II were determined by standard agar-dilution assays. The MIC's in Table III were obtained using a conventional broth-dilution microtiter test.

[2] = system: Haemophilus influenzae R252; assay: MIC, standard agar-dilution assay (Table II); details: Haemophilus influenzae R252, ampicillin-resistant strain
Method: as §1

[3] = system: Staphylococcus aureus S13E; assay: MIC, standard agar-dilution assay (Table II)
Method: as §1

[4] = system: Staphylococcus aureus V41; assay: MIC, standard agar-dilution assay (Table II); details: Staphylococcus aureus V41, penicillin-resistant strain
Method: as §1

[5] = system: Staphylococcus aureus X1.1; assay: MIC, standard agar-dilution assay (Table II)
Method: as §1

[6] = system: Staphylococcus aureus X400; assay: MIC, standard agar-dilution assay (Table II); details: Staphylococcus aureus X400, methicillin-resistant strain
Method: as §1

[7] = system: Staphylococcus epidermidis EPI1; assay: MIC, standard agar-dilution assay (Table II)
Method: as §1

[8] = system: Staphylococcus epidermidis EPI2; assay: MIC, standard agar-dilution assay (Table II)
Method: as §1

[9] = system: Streptococcus Group D 9960; assay: MIC, standard agar-dilution assay (Table II)
Method: as §1

[10] = system: Streptococcus Group D X66; assay: MIC, standard agar-dilution assay (Table II)
Method: as §1

[11] = system: Streptococcus pneumoniae Park I; assay: MIC, standard agar-dilution assay (Table II)
Method: as §1

[12] = system: Streptococcus pyogenes C203; assay: MIC, standard agar-dilution assay (Table II)
Method: as §1

[13] = system: Mycoplasma gallisepticum; assay: MIC, broth-dilution microtiter test (Table III)
Method: as §1

[14] = system: Mycoplasma hyorhinis; assay: MIC, broth-dilution microtiter test (Table III)
Method: as §1

[15] = system: Mycoplasma synoviae; assay: MIC, broth-dilution microtiter test (Table III)
Method: as §1

[16] = system: Pasteurella haemolytica 22C; assay: MIC, broth-dilution microtiter test (Table III)
Method: as §1

[17] = system: Pasteurella haemolytica 23C; assay: MIC, broth-dilution microtiter test (Table III)
Method: as §1

[18] = system: Pasteurella haemolytica 41D; assay: MIC, broth-dilution microtiter test (Table III)
Method: as §1

[19] = system: Pasteurella multocida 17E; assay: MIC, broth-dilution microtiter test (Table III); details: bovine isolate
Method: as §1

[20] = system: Pasteurella multocida 22A; assay: MIC, broth-dilution microtiter test (Table III)
Method: as §1

[21] = system: Pasteurella multocida 40G; assay: MIC, broth-dilution microtiter test (Table III)
Method: as §1

[22] = system: Pasteurella multocida 60A; assay: MIC, broth-dilution microtiter test (Table III); details: avian isolate
Method: as §1

[23] = system: Pasteurella multocida 68C; assay: MIC, broth-dilution microtiter test (Table III)
Method: as §1

[24] = system: Staphylococcus aureus; assay: MIC, broth-dilution microtiter test (Table III)
Method: as §1

[25] = system: Streptococcus sp. 80; assay: MIC, broth-dilution microtiter test (Table III)
Method: as §1

In the case of CCC1OC(=O)CC(O)C(C)C(OC2OC(C)C(O)C(N(C)C)C2OC(C)=O)C(CC=O)CC(C)C(=O)C=CC(C)=CC1COC(=O)CCCCc1ccccc1 (centres unmarked) [Compound 60], the “minimal inhibitory concentration (MIC)” value [1] is reported as 2, the “minimal inhibitory concentration (MIC)” value [2] is reported as 2 and the “minimal inhibitory concentration (MIC)” value [3] is reported as 0.25. The “minimal inhibitory concentration (MIC)” value [4] was 0.25, the “minimal inhibitory concentration (MIC)” value [5] was 0.25 and the “minimal inhibitory concentration (MIC)” value [6] was 0.25. For the same molecule, the “minimal inhibitory concentration (MIC)” value [7] was 0.25, the “minimal inhibitory concentration (MIC)” value [8] was 0.5 and the “minimal inhibitory concentration (MIC)” value [9] was 0.25. The “minimal inhibitory concentration (MIC)” value [10] was 0.25, the “minimal inhibitory concentration (MIC)” value [11] was 0.125 and the “minimal inhibitory concentration (MIC)” value [12] was 0.25. The “minimal inhibitory concentration (MIC)” value [13] was less than 0.05, the “minimal inhibitory concentration (MIC)” value [14] was 6.25 and the “minimal inhibitory concentration (MIC)” value [15] was 0.78. The “minimal inhibitory concentration (MIC)” value [16] was 6.25, the “minimal inhibitory concentration (MIC)” value [17] was 6.25 and the “minimal inhibitory concentration (MIC)” value [18] was 6.25. For the same molecule, the “minimal inhibitory concentration (MIC)” value [19] was 3.12, the “minimal inhibitory concentration (MIC)” value [20] was 3.12 and the “minimal inhibitory concentration (MIC)” value [21] was 12.5. For the same molecule, the “minimal inhibitory concentration (MIC)” value [22] was 3.12, the “minimal inhibitory concentration (MIC)” value [23] was 1.56 and the “minimal inhibitory concentration (MIC)” value [24] was 0.39. For the same molecule, the “minimal inhibitory concentration (MIC)” value [25] was 0.39.
With CCC1OC(=O)CC(O)C(C)C(OC2OC(C)C(O)C(N(C)C)C2OC(C)=O)C(CC=O)CC(C)C(=O)C=CC(C)=CC1COC(=O)c1ccc2ccccc2c1 (centres unmarked) [Compound 58] the “minimal inhibitory concentration (MIC)” value [1] was 2, the “minimal inhibitory concentration (MIC)” value [2] was 1 and the “minimal inhibitory concentration (MIC)” value [3] was 0.25. For the same molecule, the “minimal inhibitory concentration (MIC)” value [4] was 0.5, the “minimal inhibitory concentration (MIC)” value [5] was 0.25 and the “minimal inhibitory concentration (MIC)” value [6] was 0.5. The “minimal inhibitory concentration (MIC)” value [7] was 0.25, the “minimal inhibitory concentration (MIC)” value [8] was 0.5 and the “minimal inhibitory concentration (MIC)” value [9] was 0.5. The “minimal inhibitory concentration (MIC)” value [10] was 0.25, the “minimal inhibitory concentration (MIC)” value [11] was 0.03 and the “minimal inhibitory concentration (MIC)” value [12] was 0.125. The “minimal inhibitory concentration (MIC)” value [13] was less than 0.05, the “minimal inhibitory concentration (MIC)” value [14] was 6.25 and the “minimal inhibitory concentration (MIC)” value [15] was 0.78. The “minimal inhibitory concentration (MIC)” value [16] was 12.5, the “minimal inhibitory concentration (MIC)” value [17] was 6.25 and the “minimal inhibitory concentration (MIC)” value [18] was 6.25. For the same molecule, the “minimal inhibitory concentration (MIC)” value [19] was 3.12, the “minimal inhibitory concentration (MIC)” value [20] was 6.25 and the “minimal inhibitory concentration (MIC)” value [21] was 3.12. For the same molecule, the “minimal inhibitory concentration (MIC)” value [22] was 3.12, the “minimal inhibitory concentration (MIC)” value [23] was 1.56 and the “minimal inhibitory concentration (MIC)” value [24] was 1.56. For the same molecule, the “minimal inhibitory concentration (MIC)” value [25] was 0.78.
CCC1OC(=O)CC(O)C(C)C(OC2OC(C)C(O)C(N(C)C)C2OC(=O)Cc2ccccc2)C(CC=O)CC(C)C(=O)C=CC(C)=CC1COC(=O)Cc1ccccc1 (centres unmarked) [Compound 53, 2',23-Di-O-Phenylacetyl-OMT] was tested, and the “minimal inhibitory concentration (MIC)” value [1] was 1, the “minimal inhibitory concentration (MIC)” value [2] was 1 and the “minimal inhibitory concentration (MIC)” value [3] was 0.25. The “minimal inhibitory concentration (MIC)” value [4] was 0.25, the “minimal inhibitory concentration (MIC)” value [5] was 0.25 and the “minimal inhibitory concentration (MIC)” value [6] was 0.25. The “minimal inhibitory concentration (MIC)” value [7] was 0.25, the “minimal inhibitory concentration (MIC)” value [8] was 0.25 and the “minimal inhibitory concentration (MIC)” value [9] was 0.25. For the same molecule, the “minimal inhibitory concentration (MIC)” value [10] was 0.25, the “minimal inhibitory concentration (MIC)” value [11] was 0.03 and the “minimal inhibitory concentration (MIC)” value [12] was 0.06. For the same molecule, the “minimal inhibitory concentration (MIC)” value [13] was less than 0.05, the “minimal inhibitory concentration (MIC)” value [14] was 3.12 and the “minimal inhibitory concentration (MIC)” value [15] was less than 0.05. The “minimal inhibitory concentration (MIC)” value [16] was 3.12, the “minimal inhibitory concentration (MIC)” value [17] was 3.12 and the “minimal inhibitory concentration (MIC)” value [18] was 3.12. For the same molecule, the “minimal inhibitory concentration (MIC)” value [19] was 1.56, the “minimal inhibitory concentration (MIC)” value [20] was 1.56 and the “minimal inhibitory concentration (MIC)” value [21] was 1.56. The “minimal inhibitory concentration (MIC)” value [22] was 1.56, the “minimal inhibitory concentration (MIC)” value [23] was 0.78 and the “minimal inhibitory concentration (MIC)” value [24] was 0.195. For the same molecule, the “minimal inhibitory concentration (MIC)” value [25] was less than 0.05.
CCC1OC(=O)CC(O)C(C)C(OC2OC(C)C(O)C(N(C)C)C2OC(C)=O)C(CC=O)CC(C)C(=O)C=CC(C)=CC1COC(=O)Cc1ccc([N+](=O)[O-])cc1 (centres unmarked) [Compound 64] was tested, and the “minimal inhibitory concentration (MIC)” value [1] was 1, the “minimal inhibitory concentration (MIC)” value [2] was 1 and the “minimal inhibitory concentration (MIC)” value [3] was 0.125. For the same molecule, the “minimal inhibitory concentration (MIC)” value [4] was 0.125, the “minimal inhibitory concentration (MIC)” value [5] was 0.125 and the “minimal inhibitory concentration (MIC)” value [6] was 0.125. The “minimal inhibitory concentration (MIC)” value [7] was 0.125, the “minimal inhibitory concentration (MIC)” value [8] was 0.25 and the “minimal inhibitory concentration (MIC)” value [9] was 0.125. The “minimal inhibitory concentration (MIC)” value [10] was 0.125, the “minimal inhibitory concentration (MIC)” value [11] was 0.015 and the “minimal inhibitory concentration (MIC)” value [12] was 0.06. The “minimal inhibitory concentration (MIC)” value [13] was 0.097, the “minimal inhibitory concentration (MIC)” value [14] was 0.78 and the “minimal inhibitory concentration (MIC)” value [15] was less than 0.05. For the same molecule, the “minimal inhibitory concentration (MIC)” value [16] was 3.12, the “minimal inhibitory concentration (MIC)” value [17] was 3.12 and the “minimal inhibitory concentration (MIC)” value [18] was 3.12. For the same molecule, the “minimal inhibitory concentration (MIC)” value [19] was 1.56, the “minimal inhibitory concentration (MIC)” value [20] was 1.56 and the “minimal inhibitory concentration (MIC)” value [21] was 1.56. The “minimal inhibitory concentration (MIC)” value [22] was 1.56, the “minimal inhibitory concentration (MIC)” value [23] was 1.56 and the “minimal inhibitory concentration (MIC)” value [24] was 0.78. The “minimal inhibitory concentration (MIC)” value [25] was less than 0.05.
In the case of CCC(=O)OC1C(OC2C(CC=O)CC(C)C(=O)C=CC(C)=CC(CO)C(CC)OC(=O)CC(O)C2C)OC(C)C(O)C1N(C)C (centres unmarked) [Compound 2, 2'-O-Propionyl-OMT], the “minimal inhibitory concentration (MIC)” value [1] is reported as 4, the “minimal inhibitory concentration (MIC)” value [2] is reported as 4 and the “minimal inhibitory concentration (MIC)” value [3] is reported as 2. For the same molecule, the “minimal inhibitory concentration (MIC)” value [4] was 4, the “minimal inhibitory concentration (MIC)” value [5] was 2 and the “minimal inhibitory concentration (MIC)” value [6] was 4. The “minimal inhibitory concentration (MIC)” value [7] was 1, the “minimal inhibitory concentration (MIC)” value [8] was 1 and the “minimal inhibitory concentration (MIC)” value [9] was 2. The “minimal inhibitory concentration (MIC)” value [10] was 2, the “minimal inhibitory concentration (MIC)” value [11] was 8 and the “minimal inhibitory concentration (MIC)” value [12] was 0.5. The “minimal inhibitory concentration (MIC)” value [13] was 0.39, the “minimal inhibitory concentration (MIC)” value [14] was 3.12 and the “minimal inhibitory concentration (MIC)” value [15] was 0.78. For the same molecule, the “minimal inhibitory concentration (MIC)” value [16] was 12.5, the “minimal inhibitory concentration (MIC)” value [17] was 12.5 and the “minimal inhibitory concentration (MIC)” value [18] was 12.5. For the same molecule, the “minimal inhibitory concentration (MIC)” value [19] was 3.12, the “minimal inhibitory concentration (MIC)” value [20] was 3.12 and the “minimal inhibitory concentration (MIC)” value [21] was 6.25. For the same molecule, the “minimal inhibitory concentration (MIC)” value [22] was 1.56, the “minimal inhibitory concentration (MIC)” value [23] was 3.12 and the “minimal inhibitory concentration (MIC)” value [24] was 3.12. For the same molecule, the “minimal inhibitory concentration (MIC)” value [25] was less than 0.78.
